Data reported in paper PMC8636514, “Therapeutic potential of TRPM8 antagonists in prostate cancer” (Scientific Reports, 2021).

Assays:
PC3 cells [1] = assay: DNA synthesis (BrdU incorporation) in PC3 cells; format: cell-based; conditions: cycling or androgen-stimulated (10 nM R1881) cells, compound 1 µM
Experimental: (§1) Cells on coverslips were pulsed in vivo with BrdU (Sigma-Aldrich; at 100 μM, final concentration) and left unchallenged or challenged with 10 nM R1881 for 18 h, in the absence or presence of the indicated compounds. Cells were fixed, permeabilized, washed and the BrdU incorporation was analysed as reported. Nuclei were stained with Hoechst and cells on coverslips were scored by IF microscopy, using a DMLB Leica (Leica) fluorescent microscope, equipped with HCX PL Apo 63 × oil objective. Different fields from each coverslip were analyzed and BrdU incorporation was calculated by the formula: percentage of BrdU-positive cells = (No. of BrdU-positive cells/No. of total cells) × 100. Data in the graphs derive from at least 1000 scored cells for each coverslip. Representative images were captured using DC480 camera (Leica) and acquired using Leica Suite software. They are representative of three different experiments.

DU145 cells [2] = assay: DNA synthesis (BrdU incorporation) in DU145 cells; format: cell-based; conditions: cycling or androgen-stimulated (10 nM R1881) cells, compound 1 µM
Experimental: as §1

22Rv1 cells [3] = assay: DNA synthesis (BrdU incorporation) in 22Rv1 cells; format: cell-based, human; conditions: 10 nM R1881, 18 h, compound 1 μM
Experimental: as §1

DU-CaP cells [4] = assay: DNA synthesis (BrdU incorporation) in DU-CaP cells; format: cell-based, human; conditions: 10 nM R1881, 18 h, compound 1 μM
Experimental: as §1

LNCaP cells = assay: Wound scratch assay in LNCaP cells; format: cell-based, human; conditions: 10 nM R1881, 20 h, compound 1 μM
Experimental: (§2) In wound scratch analysis, 1.8 × 10^5 cells were seeded in a 24-well plate and made quiescent. Cells were then wounded using 10 µl sterile pipette tips and washed with PBS. They were left un-stimulated or stimulated for the indicated times, in the absence or presence of the selected compounds. To avoid cell proliferation, cytosine arabinoside (Sigma-Aldrich) at 50 μM (final concentration) was included in the cell medium. Different fields were analysed by contrast-phase microscopy, as below described in this section. Migration and invasion assays were done as reported. In migration assay, we used 3 × 10^4 cells in collagen pre-coated Boyden’s chambers with 8 μm polycarbonate membrane (Falcon). The indicated stimuli were added to the upper and the lower chambers. […] Migrating and invading cells were scored by fluorescence microscopy, as below described in this section.
(§3) In wound scratch assay, different fields were analysed using DMIRB inverted microscope (Leica) equipped with N-Plan 10 × objective (Leica), as reported. LNCaP organoids were analysed using the same microscope equipped with C-Plan 40 × or HCX PL Fluotar 63 × objectives (Leica). […] The relative organoid size was calculated using the same software and expressed as a fold increase over the basal organoid size (measured at 3th day). The wound gap was calculated using Image J Software and expressed as % of the decrease in the wound area. […]

PC3 cells [5] = assay: Wound scratch assay in PC3 cells; format: cell-based; conditions: cycling or quiescent cells, 10 nM R1881, compound 1 µM
Experimental: as §2, §3

DU145 cells [6] = assay: Wound scratch assay in DU145 cells; format: cell-based; conditions: cycling or quiescent cells, 10 nM R1881, compound 1 µM
Experimental: as §2, §3

22Rv1 cells [7] = assay: Transmigration assay, 22Rv1 cells; format: cell-based, human; conditions: 10 nM R1881, compound 1 μM; compared with LNCaP
Experimental: as §2, §3

22Rv1 cells [8] = assay: Invasion assay, 22Rv1 cells; format: cell-based, human; conditions: 10 nM R1881, compound 1 μM; compared with LNCaP
Experimental: as §2, §3

DU-CaP cells [9] = assay: Transmigration assay, DU-CaP cells; format: cell-based, human; conditions: 10 nM R1881, compound 1 μM; compared with LNCaP
Experimental: as §2, §3

DU-CaP cells [10] = assay: Invasion assay, DU-CaP cells; format: cell-based, human; conditions: 10 nM R1881, compound 1 μM; compared with LNCaP
Experimental: as §2, §3

PSA = PSA secretion (ELISA) from LNCaP cells; format: cell-based, human; conditions: compound 1 μM; for androgen-induced PSA secretion: 10 nM R1881, 48 h; for PSA secretion when used alone: no R1881
Experimental: It was done in culture medium using the PSA ELISA kit (Abnova-Taiwan Corporation, Taiwan), according to the manufacturer’s instructions. Released PSA was analyzed at 450 nm using the EnSpire Multimode Plate Reader (Perkin-Elmer, U.S.A.).

ERK, RSK = assay: Western blot of ERK and RSK activation in LNCaP cells; format: cell-based, human; conditions: compound 1 μM; for androgen-triggered ERK and RSK activation: 10 nM R1881, 10 min; for ERK and RSK phosphorylation/activation when used alone: no R1881
From the text: (§4) All performed as reported. The mouse monoclonal anti-AR (441; Santa Cruz) antibody was used in Co-Ip or WB approaches. TRPM8 was detected using the rabbit polyclonal anti-TRPM8 (NBP1-97311; Novus Biological). […] The rabbit polyclonal anti-ERK (C-14; Santa Cruz), antibody was used to detect total ERK. FAK and P-Tyr397 FAK were detected using the mouse monoclonal anti-FAK (Clone 77/610077 BD Transduction Laboratories) or anti P-Tyr397 FAK (Clone 14/611722; BD Transduction Laboratories) antibodies, respectively. P-Tyr118 paxillin and total paxillin were detected using the rabbit polyclonal anti-P-Y118 (#2541, Cell Signaling) or the mouse monoclonal anti-paxillin (clone 349; BD Biosciences) antibodies, respectively. […] P-Tyr 416 Src and Src were detected using the rabbit monoclonal anti P-Tyr 416 Src (#6943; Cell Signaling) or the mouse monoclonal anti Src (Calbiochem) antibodies, respectively. ERα and ERβ were detected using the rabbit polyclonal anti-ERα (543; Santa Cruz) or anti-ERβ (Upstate Biotechnology, U.S.A.) antibodies. Cyclin D1, p27 and Cdk4 were stained using the mouse monoclonal anti-cyclin D1 (clone AM29; from Zymed Laboratories Inc.), the rabbit polyclonal anti-p27 (C-19; Santa Cruz) or anti Cdk-4 (c-22; Santa Cruz) antibodies, respectively. The mouse monoclonal anti-tubulin (Sigma-Aldrich) antibody was used to detect tubulin. The ECL system (GE Healthcare) was employed to reveal immune-reactive proteins. Densitometric analysis of WB was performed by using Image J Software (https://imagej.nih.gov/ij).

[11] = test system: FAK, paxillin, ERK, RSK and Src tyrosine kinase; assay: Western blot of androgen-induced rapid actions in LNCaP cells (Fig. 6c); format: cell-based, human; conditions: 10 nM R1881, 10 min, compound 1 μM
From the text: as §4

Row | SMILES | BrdU incorporation (PC3 cells [1]) | BrdU incorporation (DU145 cells [2]) | androgen-stimulated BrdU incorporation (22Rv1 cells [3]) | androgen-stimulated BrdU incorporation (DU-CaP cells [4]) | wound-gap closure in androgen-treated cells (LNCaP cells) | wound closure (PC3 cells [5]) | wound closure (DU145 cells [6]) | androgen-induced migration (22Rv1 cells [7]) | androgen-induced invasion (22Rv1 cells [8]) | androgen-induced migration (DU-CaP cells [9]) | androgen-induced invasion (DU-CaP cells [10]) | androgen-induced PSA secretion (PSA) | PSA secretion when used alone (PSA) | androgen-triggered ERK and RSK activation (ERK, RSK) | ERK and RSK phosphorylation/activation when used alone (ERK, RSK) | androgen-elicited activation of FAK, paxillin, ERK, RSK and Src [11]
1 | c1ccc(COc2ccc3[nH]cc(CCNCc4ccc(Oc5ccccc5)cc4)c3c2)cc1 [Compound 4] | did not affect | did not affect | significantly inhibited | significantly inhibited | stronger effect | did not modify | did not modify | Superimposable results | Superimposable results | Superimposable results | Superimposable results | negligible inhibition | Neither the two TRPM8 antagonists, nor enzalutamide did modify such response | inhibited | leaving unaffected | impaired at similar extent
2 | COC(=O)[C@H](Cc1c[nH]c2ccccc12)N(Cc1ccccc1)Cc1ccccc1 [Compound 6] | did not affect | did not affect | significantly inhibited | significantly inhibited | stronger effect | did not modify | did not modify | Superimposable results | Superimposable results | Superimposable results | Superimposable results | negligible inhibition | Neither the two TRPM8 antagonists, nor enzalutamide did modify such response | inhibited | leaving unaffected | impaired at similar extent
